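48-hour exposure; five concentrations; linearly interpolated endpoints. Abbreviation: GI50, concentration required for 50% inhibition of growth.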 Calls of active or inactive are those of the source. No stated cut-off is given here; in the data, active = GI50 up to about 1.1 µM and inactive = higher.
How the values were obtained:
Assay in all cases: NCI-60 cell line screen, 48 h
[1] = test system: IGROV-1
[2] = test system: NCI-H460
[3] = test system: HOP-62
[4] = test system: 786-0
[5] = test system: SNB-19
[6] = test system: OVCAR-3
[7] = test system: SK-MEL-2
[8] = test system: SK-MEL-5
[9] = test system: EKVX
[10] = test system: MOLT-4
[11] = test system: RPMI-8226
[12] = test system: HCT-116
[13] = test system: DU-145
[14] = test system: SF-268
[15] = test system: SR
[16] = test system: CAKI-1
[17] = test system: UACC-62
[18] = test system: NCI-H522
[19] = test system: A498
[20] = test system: PC-3
[21] = test system: KM12
[22] = test system: A549
[23] = test system: HT-29
[24] = test system: CCRF-CEM
[25] = test system: SN12C
[26] = test system: U-251
[27] = test system: SW-620
[28] = test system: MDA-MB-231
[29] = test system: OVCAR-4
[30] = test system: BT-549
[31] = test system: OVCAR-5
[32] = test system: SF-539
[33] = test system: NCI-H226
[34] = test system: K562
[35] = test system: HCT-15
[36] = test system: MCF7
[37] = test system: OVCAR-8
[38] = test system: UACC-257
[39] = test system: HOP-92
[40] = test system: SF-295
[41] = test system: ACHN
[42] = test system: MDA-MB-435
[43] = test system: T47D
[44] = test system: HCC 2998
[45] = test system: SNB-75
[46] = test system: SK-OV-3
[47] = test system: MDA-N
[48] = test system: M14
[49] = test system: Malme-3M
[50] = test system: LOX IMVI
[51] = test system: NCI/ADR-RES
[52] = test system: Hs-578T
[53] = test system: NCI-H23
[54] = test system: TK-10
[55] = test system: COLO 205
[56] = test system: HL-60
[57] = test system: UO-31
[58] = test system: RXF 393
[59] = test system: SK-MEL-28

Measured: GI50

CN(/N=C/c1ccc(Cl)c(Cl)c1)C1=NCCN1
inactive: [1] 27.1 µM | [2] 40.8 µM | [3] 17.4 µM | [4] 16.4 µM | [5] 55.8 µM | [6] 28.6 µM | [7] 18.5 µM | [8] 16.4 µM | [9] 59 µM | [10] 13.7 µM | [11] 24.8 µM | [12] 17.9 µM | [13] 48.6 µM | [14] 28.7 µM | [15] 31.2 µM | [16] 17.3 µM | [17] 18.6 µM | [18] 13.8 µM | [19] 12.1 µM | [20] 11.9 µM | [21] 28.1 µM | [22] 33.4 µM | [23] 25.2 µM | [24] 16.7 µM | [25] 29.9 µM | [26] 23.2 µM | [27] 16 µM | [28] 23 µM | [29] 41.2 µM | [30] 28.3 µM | [31] > 100 µM | [32] 21.2 µM | [33] 27.1 µM | [34] 12.1 µM | [36] 22.9 µM | [37] 40.3 µM | [38] 20.1 µM | [39] 21.7 µM | [40] 24.8 µM | [41] 31.9 µM | [42] 19.5 µM | [43] 23 µM | [44] 30.3 µM | [45] 15.8 µM | [46] 22.4 µM | [47] 15.7 µM | [48] 16.5 µM | [49] 18.8 µM | [50] 12.4 µM | [51] 37.6 µM | [52] 18.1 µM | [53] 56 µM | [54] 46.2 µM | [55] 17.7 µM
30.8 µM: [35]

CN(CCc1ccc(Cl)c(Cl)c1)CCN(C)CCN1CCCC1
inactive: [1] 17.7 µM | [2] 8.93 µM | [3] 15.1 µM | [4] 8.99 µM | [5] 17.4 µM | [6] 23.3 µM | [7] 3.33 µM | [56] 13.4 µM | [57] 5.15 µM | [8] 2.51 µM | [9] 16.6 µM | [10] 3.6 µM | [11] 2.86 µM | [12] 5.62 µM | [13] 25.6 µM | [14] 6.5 µM | [15] 4.84 µM | [16] 15.2 µM | [17] 1.98 µM | [18] 6.64 µM | [19] 13.1 µM | [20] 14.5 µM | [21] 10.9 µM | [22] 10.5 µM | [23] 2.38 µM | [24] 3.72 µM | [25] 15.7 µM | [26] 10.4 µM | [27] 12.1 µM | [28] 8.99 µM | [29] 28.5 µM | [30] 16.7 µM | [31] 18.6 µM | [32] 4.08 µM | [33] 20 µM | [34] 2.25 µM | [36] 12.1 µM | [37] 21.7 µM | [38] 2.36 µM | [39] 3.66 µM | [40] 16.5 µM | [41] 21.2 µM | [42] 2.02 µM | [43] 19.2 µM | [44] 1.96 µM | [45] 14.9 µM | [46] 21.2 µM | [47] 1.79 µM | [48] 4.86 µM | [49] 5.02 µM | [50] 4.76 µM | [58] 10 µM | [59] 1.64 µM | [51] 25.4 µM | [52] 17.5 µM | [53] 14.2 µM | [54] 13.3 µM | [55] 2.23 µM
14.5 µM: [35]

Nc1ccc2nc(-c3ccccn3)c(-c3ccccn3)nc2c1
inactive: [1] > 100 µM | [2] > 100 µM | [4] > 100 µM | [5] > 100 µM | [6] > 100 µM | [7] > 100 µM | [56] > 100 µM | [57] > 100 µM | [8] > 100 µM | [9] > 100 µM | [10] > 100 µM | [11] > 100 µM | [12] > 100 µM | [13] > 100 µM | [14] > 100 µM | [15] > 100 µM | [16] > 100 µM | [17] > 100 µM | [18] > 100 µM | [19] > 100 µM | [20] > 100 µM | [21] > 100 µM | [22] > 100 µM | [24] > 100 µM | [25] > 100 µM | [26] > 100 µM | [27] > 100 µM | [28] > 100 µM | [29] > 100 µM | [30] > 100 µM | [31] > 100 µM | [32] > 100 µM | [33] > 100 µM | [34] > 100 µM | [36] > 100 µM | [37] > 100 µM | [38] > 100 µM | [39] > 100 µM | [40] > 100 µM | [41] > 100 µM | [42] > 100 µM | [43] > 100 µM | [44] > 100 µM | [45] > 100 µM | [47] > 100 µM | [48] > 100 µM | [49] > 100 µM | [50] > 100 µM | [58] > 100 µM | [59] > 100 µM | [51] > 100 µM | [52] > 100 µM | [54] > 100 µM | [55] > 100 µM
> 100 µM: [35]
